Earlier results as cited in patent publication US20030133872A1, “Radiopharmaceutical agent for the treatment of early stage cancer” (priority 2001, published 2003).

Conditions: Woolfenden et al., Int. J. Nucl. Med. 10 (4), 251-256 (1983)

## [153Sm+3].[Cl-].[Cl-].[Cl-] [^153Sm-chloride]
  liver uptake: high liver uptake
